Reference: US6440952B2, “Phosphono-carboxylate compounds for treating amyloidosis” (Queen's University at Kingston, priority 1999, dated 2002)
Structures can show the parent of a compound that is named as a salt.

How the values were obtained:
[1] = molecular target: T1, Aβ peptide (Homo sapiens, UniProt P05067); experiment: in vitro circular dichroism (CD) assay for formation of β-sheet secondary structure; format: biochemical; conditions: Aβ peptide with test compound in 10 mM Tris-HCl pH 7, incubated 0 or 24 hours at 37° C.
T1 construct: Aβ is a 40 amino acid protein associated with Alzheimer's disease; made in house; host or cells: chemical solid-phase peptide synthesis (no expression host)
T1 sequence (P05067 672-711 limits assumed): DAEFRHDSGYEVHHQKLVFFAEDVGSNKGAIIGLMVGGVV
Excerpt: It is known that amyloidogenic peptides or proteins which have formed amyloid deposits or plaques have a significant amount of β-sheet secondary structure, while the unaggregated peptide or protein generally has less β-sheet structure. It is believed that the ability of a candidate therapeutic compound to prevent the formation of β-sheet secondary structure in vitro may be correlated with the ability of the compound to inhibit amyloidogenesis in vivo. Accordingly, phosphonate compounds were assayed for ability to prevent the formation of β-sheet secondary structure in assay systems including an in vitro circular dichroism (CD) assay.
Aβ is a 40 amino acid protein associated with Alzheimer's disease. Aβ peptide was prepared and purified as described in Fraser, P. E. et al., Biochemistry 31, 10716 (1992). Briefly, the peptide was synthesized by standard solid-phase techniques and purified by HPLC according to well known procedures.
All CD experiments were performed on a commercially available instrument. The cell is was maintained at 25° C. using a circulating water bath. Computer-averaging of traces was performed to improve signal-to-noise ratios. The solvent signal was subtracted. CD experiments were performed for each test compound according to the following procedure:
A stock solution of purified peptide was made by dissolving the peptide in phosphate-buffered saline (PBS) to a concentration of 2 mg/ml. A test solution was made for each potential therapeutic agent (test compound) as shown below:
The control sample had no test compound, and a total of 5 μl distilled water was added. The test solution was incubated for either 0 or 24 hours at 37° C. before CD measurement. The size minimum in the CD spectrum at 218 nm is believed to be diagnostic of the presence of β-pleated sheet. Comparison of the minimum at 218 nm of a candidate compound, compared to the minimum of a control sample, is believed to be indicative of the ability of the candidate compound to inhibit the formation of β-pleated sheet.

[2] = molecular target: T2, amyloid peptide (Homo sapiens, UniProt P05067); experiment: amyloid peptide solubility assay (overnight incubation, centrifugation, determination of soluble peptide); format: biochemical; conditions: compound and amyloid peptide incubated together overnight, preliminary result, buffer composition may have interfered
T2 construct: Aβ is a 40 amino acid protein associated with Alzheimer's disease
T2 sequence (P05067 672-711 limits assumed): as above

[3] = system: cortical/hippocampal neuronal cultures; experiment: neurotoxicity in cortical/hippocampal neuronal cultures; format: cell-based; conditions: concentrations ranging from 10^−7M to 10^−4 M

SMILES	reduction of β-sheet formation as measured by the CD assay (minimum at 218 nm versus control) [1]	effect on amyloid peptide solubility [2]	neurotoxicity [3]
O=C(O)CCP(=O)(O)O [2 carboxyethylphosphonic acid]	lower ability to prevent β-pleated sheet formation	–	–
O=C(O)CP(=O)(O)O [Phosphonoacetate]	active	–	–
O=C(O)P(=O)(O)O [phosphonoformate trisodium salt, Trisodium phosphonoformate]	significantly and reproducibly reduce the amount of β-sheet formation	little effect on amyloid peptide solubility	no significant toxicity
